# Measurements reported in US7563570B2, “Method of determining a chemotherapeutic regimen for non small cell lung cancer based on BRCA1 expression” (Pangaea Biotech, priority 2004, dated 2009).
# Tests used:
# [1] = test system: SKOV-3 human ovarian cancer cell line; settings: cited from earlier work
# [2] = test system: HCC1937 breast cancer cell line; settings: HCC1937, BRCA1 reconstituted vs BRCA1-negative; cited from earlier work
# breast cancer cell line = settings: BRCA1 mRNA determined by RT-QPCR; cited from earlier work
# [3] = test system: non-small-cell lung cancer (NSCLC) patients; assay: Neoadjuvant gemcitabine/cisplatin followed by surgery in stage IIB, IIIA and IIIB NSCLC patients, outcome by quartile of tumor BRCA1 mRNA expression; assay type: in vivo, human
# Protocol: In all patients, neoadjuvant chemotherapy was indicated after evaluation by a thoracic surgeon, a radiologist, a medical oncologist, and a radiation oncologist. Patients received three cycles of neoadjuvant chemotherapy; 51 received cisplatin 100 mg/m^2 day 1 plus gemcitabine 1250 mg/m^2 days 1 and 8 every 21 days, and four received carboplatin AUC=5 day 1 plus gemcitabine 1000 mg/m^2 days 1 and 8 every 21 days. A thoracotomy was performed within four to five weeks after the last chemotherapy cycle; the surgical procedure was based on the extent of tumor at the time of the initial presentation.
# We examined BRCA1 gene expression in formalin-fixed, paraffin-embedded surgical resected specimens from the 55 patients as previously described: Specht K, et al. (2001) Am. J. Pathol., 158, 419-429: “Quantitative gene expression analysis in microdissected archival formalin-fixed and paraffin-embedded tumor tissue”; Krafft A E, et al. (1997) Mol. Diagn., 3, 217-230: “Optimization of the isolation and amplification of RNA from formalin fixed, paraffin-embedded tissue: The Armed Forces Institute of Pathology experience and literature review”. After standard tissue sample deparaffinization using xylene and alcohols, samples were lysed in a tris-chloride, EDTA, sodium dodecyl sulphate (SDS) and proteinase K containing buffer. RNA was then extracted with phenol-chloroform-isoamyl alcohol followed by precipitation with isopropanol in the presence of glycogen and sodium acetate. RNA was resuspended in RNA storage solution (Ambion Inc; Austin Tex., USA) and treated with DNAse I to avoid DNA contamination. cDNA was synthesized using M-MLV retrotranscriptase enzyme. Template cDNA was added to Taqman Universal Master Mix (AB; Applied Biosystems, Foster City, Calif., USA) in a 12.5-μl reaction with specific primers and probe for each gene. The primer and probe sets were designed using Primer Express 2.0 Software (AB). Quantification of gene expression was performed using the ABI Prism 7900HT Sequence Detection System (AB). Primers and probe for BRCA1 mRNA expression analysis were designed according to the Ref Seq NM_007294 (www.ncbi.nlm.nih.gov/LocusLink). Forward primer is located in exon 8 (position 4292 bp to 4317 bp), reverse primer in exon 9 (position 4336 bp to 4360 bp), and probe in the exon 8/9 junction (position 4313 bp to 4333 bp). The PCR product size generated with these primers was 69 bp. The primers and 5′ labeled fluorescent reporter dye (6FAM) probe were as follows: β-actin: forward 5′ TGA GCG CGG CTA CAG CTT 3′, reverse 5′ TCCTTAATGTCACGCACGATTT 3′, probe 5′ ACC ACC ACG GCC GAG CGG 3′; BRCA1: forward 5′GGCTATCCTCTCAGAGTGACATTTTA 3′, reverse 5′ GCTTTATCAGGTTATGTTGCATGGT 3′, probe 5′ CCA CTC AGC AGA GGG 3′.
# Relative gene expression quantification was calculated according to the comparative Ct method using β-actin as an endogenous control and commercial RNA controls (Stratagene, La Jolla, Calif.) as calibrators. Final results, were determined as follows: 2^−(ΔCt sample−ΔCt calibrator), where ΔCT values of the calibrator and sample are determined by subtracting the CT value of the target gene from the value of the β-actin gene. In all experiments, only triplicates with a standard deviation (SD) of the Ct value <0.20 were accepted. In addition, for each sample analyzed, a retrotranscriptase minus control was run in the same plate to assure lack of genomic DNA contamination (FIG. 1).
# In order to provide an easily interpretable evaluation of the effect of BRCA1 mRNA expression, gene expression values were divided into quartiles. Interpatient variation coefficients were calculated to assess similarities between quartiles. Hazard ratios were calculated with the univariate Cox model, and comparison between Kaplan-Meier survival curves was performed with the log-rank test. […]
# [4] = test system: Mouse models carrying conditional disruption of BRCA1; settings: cited from earlier work
# [5] = bottom quartile of BRCA1 levels
# [6] = bottom quartile of BRCA1 levels, listed as Gemcitabine/Cisplatin
# [7] = middle quartiles of BRCA1 levels
# [8] = middle quartiles of BRCA1 levels, listed as Gemcitabine/Cisplatin
# [9] = top quartile of BRCA1 levels, listed as Gemcitabine/Cisplatin
molecule,measurement,setting,value
"N.N.[Cl][Pt][Cl] [cisplatin, cis-diaminodichloroplatinum]",Change of drug resistance on upregulation of BRCA1 expression,[1],increased cisplatin resistance
same,Increase in resistance on reconstitution of wild-type BRCA1,[2],20 fold
same,Change of drug sensitivity on decreased BRCA1 mRNA expression,breast cancer cell line,greater sensitivity
COc1cc([C@@H]2c3cc4c(cc3[C@@H](O[C@@H]3O[C@@H]5CO[C@@H](C)O[C@H]5[C@H](O)[C@H]3O)[C@H]3COC(=O)[C@H]23)OCO4)cc(OC)c1O [etoposide],Change of drug sensitivity on decreased BRCA1 mRNA expression,breast cancer cell line,greater sensitivity
CC(=O)O[C@H]1C(=O)[C@@]2(C)[C@H]([C@H](OC(=O)c3ccccc3)[C@]3(O)C[C@H](OC(=O)[C@H](O)[C@@H](NC(=O)c4ccccc4)c4ccccc4)C(C)=C1C3(C)C)[C@]1(OC(C)=O)CO[C@@H]1C[C@@H]2O [paclitaxel],Change of drug sensitivity on decreased BRCA1 mRNA expression,breast cancer cell line,greater resistance
gemcitabine/cisplatin,Patients who attained a complete pathologic response (T0N0),[3]; all in the bottom quartile of BRCA1 levels,Five
same,Median survival,[3]; all patients,37.8 months
same,"Risk of death, hazard ratio","[3]; bottom quartile compared to top quartile, unstratified",0.187
same,Radiographic Response: Partial Response,[3]; [5],66.7%
same,Radiographic Response: Stable Disease,[3]; [5],(33.3) %
same,Surgical Results: Complete Resection,[3]; [5],93.3%
same,Radiographic Response: Progressive Disease,"[3]; bottom quartile of BRCA1 levels, number of patients",0 N
same,Radiographic Response: Partial Response,[3]; [6],(66.7) %
same,Surgical Results: Complete Resection,[3]; [6],(93.3) %
same,Median survival,"[3]; bottom quartile of BRCA1 mRNA levels (0.28-0.61), 15 patients",not reached
same,Radiographic Response: Partial Response,[3]; [7],57.1%
same,Radiographic Response: Progressive Disease,[3]; [7],(7.1) %
same,Radiographic Response: Stable Disease,[3]; [7],(35.7) %
same,Surgical Results: Complete Resection,[3]; [7],78.6%
same,Radiographic Response: Partial Response,[3]; [8],(57.1) %
same,Surgical Results: Complete Resection,[3]; [8],(78.6) %
same,Median survival,[3]; patients who underwent lobectomy,51.9 months
same,Median survival,[3]; patients who underwent pneumonectomy,25.8 months
same,"Risk of death, hazard ratio","[3]; stratified by clinical stage, bottom quartile compared to top quartile",0.220
same,"Risk of death, hazard ratio","[3]; stratified by clinical stage, two middle quartiles compared to top quartile",0.430
same,"Risk of death, hazard ratio","[3]; stratified by pathologic stage, bottom quartile compared to top quartile",0.206
same,"Risk of death, hazard ratio","[3]; stratified by pathologic stage, two middle quartiles compared to top quartile",0.294
same,Radiographic Response: Partial Response,[3]; top quartile of BRCA1 levels,58.3%
same,Radiographic Response: Progressive Disease,[3]; top quartile of BRCA1 levels,(8.3) %
same,Radiographic Response: Stable Disease,[3]; top quartile of BRCA1 levels,(33.3) %
same,Surgical Results: Complete Resection,[3]; top quartile of BRCA1 levels,83.3%
same,Radiographic Response: Partial Response,[3]; [9],(58.3) %
same,Surgical Results: Complete Resection,[3]; [9],(83.3) %
same,Median survival,"[3]; top quartile of BRCA1 mRNA levels (2.45-10.43), 12 patients",12.7 months
same,"Risk of death, hazard ratio","[3]; two middle quartiles compared to top quartile, unstratified",0.382
same,Median survival,"[3]; two middle quartiles of BRCA1 mRNA levels (0.65-2.37), 28 patients",37.8 months
CC[C@]1(O)C[C@H]2CN(CCc3c([nH]c4ccccc34)[C@@](C(=O)OC)(c3cc4c(cc3OC)N(C=O)[C@H]3[C@@](O)(C(=O)OC)[C@H](OC(C)=O)[C@]5(CC)C=CCN6CC[C@]43[C@@H]65)C2)C1 [vincristine],Change of drug sensitivity on decreased BRCA1 mRNA expression,breast cancer cell line,greater resistance
COc1cccc2c1C(=O)c1c(O)c3c(c(O)c1C2=O)C[C@@](O)(C(=O)CO)C[C@@H]3O[C@H]1C[C@H](N)[C@H](O)[C@H](C)O1 [doxorubicin],Sensitivity of BRCA1-disrupted mouse models,[4],highly sensitive
CC/C(=C(\c1ccccc1)c1ccc(OCCN(C)C)cc1)c1ccccc1 [tamoxifen],Sensitivity of BRCA1-disrupted mouse models,[4],resistant
